Target: T1, PRKG1 (Homo sapiens, UniProt Q13976)
T1 construct: purchased Thermo Fisher Scientific (Life Technologies) SelectScreen
Experiment: SelectScreen Z'LYTE
Format: biochemical
In short: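 NU5455 was profiled across the SelectScreen Broad panel of kinase activity and binding assays. Z'LYTE reactions such as CSF1R ran at apparent Km ATP, while the Adapta CAMK1 assay used ATP listed as 10. Values are given as percent.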

T1 sequence (Q13976 whole entry): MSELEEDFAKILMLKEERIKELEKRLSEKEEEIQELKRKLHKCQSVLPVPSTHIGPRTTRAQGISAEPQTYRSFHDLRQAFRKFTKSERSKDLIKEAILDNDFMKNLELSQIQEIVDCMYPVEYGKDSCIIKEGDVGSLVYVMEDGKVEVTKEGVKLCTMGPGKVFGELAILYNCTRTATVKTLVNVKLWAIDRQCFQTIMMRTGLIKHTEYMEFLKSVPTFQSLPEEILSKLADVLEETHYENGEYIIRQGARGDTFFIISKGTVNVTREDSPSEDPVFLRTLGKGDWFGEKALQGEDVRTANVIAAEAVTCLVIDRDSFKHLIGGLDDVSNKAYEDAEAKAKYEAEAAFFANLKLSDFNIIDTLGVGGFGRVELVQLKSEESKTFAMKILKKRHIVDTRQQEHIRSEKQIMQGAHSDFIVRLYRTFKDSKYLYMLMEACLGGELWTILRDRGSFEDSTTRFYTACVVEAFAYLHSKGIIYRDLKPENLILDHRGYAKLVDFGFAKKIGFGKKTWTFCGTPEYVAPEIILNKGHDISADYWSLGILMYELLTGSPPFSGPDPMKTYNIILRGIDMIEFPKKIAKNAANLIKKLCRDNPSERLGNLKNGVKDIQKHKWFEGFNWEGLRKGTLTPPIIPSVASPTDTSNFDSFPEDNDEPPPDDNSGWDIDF

CN(C(=O)CN1CCOCC1)c1ccc2sc3c(-c4cccc5c(=O)cc(N6CC7CCC(C6)O7)oc45)cccc3c2c1 [NU5455]
inhibition at 1 µM: -2.7%

— article PMC6934184, “Selective DNA-PKcs inhibition extends the therapeutic index of localized radiotherapy and chemotherapy” (The Journal of Clinical Investigation, 2019)
